Laboratory results: ChEMBL document CHEMBL2029339, “Acylthiourea, acylurea, and acylguanidine derivatives with potent hedgehog inhibiting activity” (J Med Chem, 2012)

Key:
C3H 10T1/2 [1] = assay: Inhibition of SAG-induced differentiation of mouse mesenchymal pluripotent C3H10T1/2 cells to alkaline phosphatase positive oeseoblasts at 10 uM after 6 days; conditions: C3H 10T1/2, 6 days
[2] = molecular target: Smoothened (Mus musculus) (UniProt P56726); assay: Inhibition of Smo-mediated Hh signaling in mouse Shh-light2 cells at 3 uM by luciferase reporter gene assay; conditions: Shh Light II
Chain of Smoothened (Mus musculus) (P56726 whole entry, looked up): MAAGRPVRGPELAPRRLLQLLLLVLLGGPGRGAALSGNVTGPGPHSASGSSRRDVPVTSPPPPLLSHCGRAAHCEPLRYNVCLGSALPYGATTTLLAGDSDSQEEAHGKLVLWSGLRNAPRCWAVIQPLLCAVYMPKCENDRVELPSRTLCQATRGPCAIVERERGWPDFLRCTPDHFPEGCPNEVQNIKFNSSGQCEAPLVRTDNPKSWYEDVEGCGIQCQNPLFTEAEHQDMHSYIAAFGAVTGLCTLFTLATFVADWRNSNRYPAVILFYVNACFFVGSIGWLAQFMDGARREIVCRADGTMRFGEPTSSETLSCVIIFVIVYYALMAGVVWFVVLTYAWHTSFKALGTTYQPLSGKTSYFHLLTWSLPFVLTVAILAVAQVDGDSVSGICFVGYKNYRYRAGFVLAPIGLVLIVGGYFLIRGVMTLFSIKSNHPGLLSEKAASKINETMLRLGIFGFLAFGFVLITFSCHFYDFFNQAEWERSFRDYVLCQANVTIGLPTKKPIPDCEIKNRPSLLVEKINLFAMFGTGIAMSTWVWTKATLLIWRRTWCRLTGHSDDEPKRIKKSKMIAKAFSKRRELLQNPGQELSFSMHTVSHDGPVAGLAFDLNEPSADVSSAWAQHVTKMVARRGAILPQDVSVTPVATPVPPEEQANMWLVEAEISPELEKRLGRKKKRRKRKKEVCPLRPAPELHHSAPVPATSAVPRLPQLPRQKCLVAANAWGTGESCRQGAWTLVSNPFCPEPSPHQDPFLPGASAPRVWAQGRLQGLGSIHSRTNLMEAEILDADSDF

[3] = molecular target: Smoothened (Mus musculus) (UniProt P56726); assay: Inhibition of Smo-mediated Hh signaling in mouse Shh-light2 cells at 0.3 uM by luciferase reporter gene assay; conditions: Shh Light II
C3H 10T1/2 [4] = assay: Inhibition of SAG-induced differentiation of mouse mesenchymal pluripotent C3H10T1/2 cells to alkaline phosphatase positive oeseoblasts after 6 days; conditions: C3H 10T1/2, 6 days
[5] = molecular target: Smoothened (Mus musculus) (UniProt P56726); assay: Inhibition of Smo-mediated Hh signaling in mouse Shh-light2 cells by luciferase reporter gene assay

Row | Compound | inhibition at 10 µM (C3H 10T1/2 [1]) | inhibition [2] | inhibition [3] | IC50 (C3H 10T1/2 [4]) | IC50 [5]
1 | COc1cc(C(=O)NC(=S)Nc2cccc(NC(=O)c3ccc(-c4ccccc4)cc3)c2C)cc(OC)c1OC | 7% | 48% | 9% | – | –
2 | COc1cc(C(=O)NC(=N)Nc2ccc(Cl)c(NC(=O)c3ccccc3)c2)cc(OC)c1OC | – | – | – | 370 nM | 370 nM
3 | COc1cc(C(=O)NC(=S)Nc2cccc(NC(=O)c3ccc(-c4ccc(F)cc4)cc3)c2)cc(OC)c1OC | 95% | 97% | – | 140 nM | 100 nM
4 | COc1cc(C(=O)NC(=S)Nc2ccc(Cl)c(NC(=O)c3ccc(-c4ccccc4)cc3)c2)cc(OC)c1OC | 101% | 99% | 85% | 380 nM | 130 nM
5 | COc1cc(C(=O)NC(=O)Nc2cccc(NC(=O)c3cc4ccccc4[nH]3)c2)cc(OC)c1OC | 97% | 90% | 85% | 220 nM | 110 nM
6 | COc1ccc(C(=O)Nc2cccc(NC(=O)NC(=O)c3cc(OC)c(OC)c(OC)c3)c2)cc1 | 99% | 103% | 40% | – | –
7 | COc1cc(C(=O)NC(=N)Nc2ccc(Cl)c(NC(=O)c3ccc(-c4ccccc4)cc3)c2)cc(OC)c1OC | – | – | – | 130 nM | 70 nM
8 | COc1cc(C(=O)NC(=S)Nc2cccc(NC(=O)c3ccc(-c4ccccc4)cc3)c2)cc(OC)c1OC | 62% | 89% | – | 80 nM | 90 nM
9 | COc1cc(C(=O)NC(=N)Nc2cccc(-c3cc4ccccc4[nH]3)c2)cc(OC)c1OC | – | – | – | 180 nM | 70 nM
10 | COc1cc(C(=O)NC(=S)Nc2ccc(F)c(NC(=O)c3ccccc3)c2)cc(OC)c1OC | 96% | 98% | 21% | – | –
11 | CCOc1cc(C(=O)NC(=O)Nc2cccc(NC(=O)c3ccccc3)c2)cc(OCC)c1OCC | 45% | 24% | 13% | – | –
12 | COc1cc(C(=O)NC(=S)Nc2ccc(C)c(C(=O)Nc3ccccc3)c2)cc(OC)c1OC | 99% | 89% | 13% | 2500 nM | 1800 nM
13 | COc1cc(C(=O)NC(=S)Nc2cccc(-c3cn4ccccc4n3)c2)cc(OC)c1OC | 94% | 93% | – | 550 nM | 820 nM
14 | COc1cc(C(=O)NC(=N)Nc2ccc(Cl)c(C(=O)Nc3ccccc3)c2)cc(OC)c1OC | – | – | – | 440 nM | 160 nM
15 | COc1cc(C(=O)NC(=O)Nc2cccc(NC(=O)c3ccc(-c4ccccc4)cc3)c2C)cc(OC)c1OC | 104% | 99% | 26% | – | –
16 | COc1cc(C(=O)NC(=O)Nc2cccc(NC(=O)c3ccccc3)c2)cc2c1OCO2 | 32% | 2% | 1% | – | –
17 | COc1cc(C(=O)NC(=S)Nc2ccc(C)c(NC(=O)c3ccc(Oc4ccccc4)cc3)c2)cc(OC)c1OC | 99% | 97% | 59% | 500 nM | –
18 | COc1cc(C(=O)NC(=O)Nc2ccc(Cl)c(NC(=O)c3ccc(-c4ccccc4)cc3)c2)cc(OC)c1OC | 72% | 98% | 95% | 100 nM | 80 nM
19 | COc1cc(C(=O)NC(=N)Nc2ccc(C)c(C(=O)Nc3ccccc3)c2)cc(OC)c1OC | – | – | – | 200 nM | 190 nM
20 | COc1cc(C(=O)NC(=S)Nc2ccc(Cl)c(C(=O)Nc3ccccc3)c2)cc(OC)c1OC | 96% | 95% | 11% | 1500 nM | 520 nM
21 | COc1cc(C(=O)NC(=S)Nc2ccc(C)c(NC(=O)c3ccc(-c4ccc(F)cc4)cc3)c2)cc(OC)c1OC | 86% | 97% | 96% | 30 nM | 29 nM
22 | COc1ccc(NC(=O)c2cc(NC(=S)NC(=O)c3cc(OC)c(OC)c(OC)c3)ccc2Cl)cc1 | 88% | 100% | 10% | – | –

Row | Compound | inhibition at 10 µM (C3H 10T1/2 [1]) | inhibition [2] | inhibition [3] | IC50 (C3H 10T1/2 [4]) | IC50 [5]
23 | COc1ccccc1C(=O)Nc1cccc(NC(=S)NC(=O)c2cc(OC)c(OC)c(OC)c2)c1 | 99% | 49% | – | 2000 nM | –
24 | COc1cc(C(=O)NC(=N)Nc2ccc(C)c(NC(=O)c3ccccc3)c2)cc(OC)c1OC | – | – | 88% | 180 nM | –
25 | COc1cc(C(=O)NC(=S)Nc2cccc(NC(=O)c3ccccc3)c2C)cc(OC)c1OC | 44% | 54% | 2% | – | –
26 | COc1ccc(NC(=S)NC(=O)c2cc(OC)c(OC)c(OC)c2)cc1NC(=O)c1ccccc1 | 8% | 33% | 1% | – | –
27 | COc1cc(C(=O)NC(=O)Nc2cccc(NC(=O)C(C)C)c2)cc(OC)c1OC | 99% | 62% | 4% | – | –
28 | COc1cc(C(=O)NC(=S)Nc2ccc(C)c(NC(=O)c3ccccc3)c2)cc(OC)c1OC | 99% | 100% | 60% | 900 nM | –
29 | COc1cc(C(=O)NC(=S)Nc2cccc(-c3cn4ccsc4n3)c2)cc(OC)c1OC | 98% | 92% | – | – | 1100 nM
30 | COc1cc(C(=O)NC(=S)Nc2ccc(Cl)c(C(=O)Nc3ccc(Cl)cc3)c2)cc(OC)c1OC | 96% | 98% | 7% | – | –
31 | COc1cc(C(=O)NC(=N)Nc2cccc(NC(=O)c3ccc(N4CCOCC4)cc3)c2)cc(OC)c1OC | – | – | – | 200 nM | 220 nM
32 | COc1cc(C(=O)NC(=S)Nc2ccc(C)c(NC(=O)c3cccc(-c4ccccc4)c3)c2)cc(OC)c1OC | 97% | 100% | 72% | 600 nM | –
33 | COc1cc(C(=O)NC(=N)Nc2cccc(-n3ccc4ccccc43)c2)cc(OC)c1OC | – | – | – | 390 nM | 900 nM
34 | COc1cc(C(=O)NC(=N)Nc2cccc(NC(=O)c3ccc(-c4ccc(F)cc4)cc3)c2)cc(OC)c1OC | – | – | – | 30 nM | 33 nM
35 | COc1cccc(C(=O)Nc2cccc(NC(=S)NC(=O)c3cc(OC)c(OC)c(OC)c3)c2)c1 | 89% | 99% | – | 2000 nM | –
36 | COc1cc(C(=O)NC(=N)Nc2ccc(C)c(NC(=O)c3cccc(-c4ccccc4)c3)c2)cc(OC)c1OC | – | – | – | 260 nM | 110 nM
37 | COc1cc(C(=O)NC(=S)Nc2ccc(Cl)c(NC(=O)c3ccccc3)c2)cc(OC)c1OC | 96% | 89% | 69% | 990 nM | 190 nM
38 | COc1cc(C(=O)NC(=N)Nc2ccc(C)c(NC(=O)c3ccc(-c4ccc(F)cc4)cc3)c2)cc(OC)c1OC | – | – | – | 11 nM | 14 nM
39 | COc1cc(C(=O)NC(=S)Nc2cc(NC(=O)c3ccccc3)ccc2F)cc(OC)c1OC | 97% | 92% | 4% | – | –
40 | COc1cc(C(=O)NC(=O)Nc2cccc(NC(=O)c3ccc4ccccc4c3)c2)cc(OC)c1OC | 4% | 3% | 1% | – | –
41 | COc1cc(C(=O)NC(=O)Nc2cccc(NC(=O)c3ccc(Cl)cc3)c2)cc(OC)c1OC | 95% | 96% | 6% | – | –
42 | COc1cc(C(=O)NC(=S)Nc2ccc(Cl)c(C(=O)Nc3ccc(N(C)C)cc3)c2)cc(OC)c1OC | 98% | 99% | 4% | – | –
43 | COc1cc(C(=O)NC(=S)Nc2cccc(-c3cc4ccccc4[nH]3)c2)cc(OC)c1OC | 102% | 90% | – | 280 nM | 180 nM
